From patent publication US20240043427A1 (Gilead Sciences, Inc., priority 2020, published 2024) come the findings set out here.

pEC50, pIC50: −log10 of the molar value. A value given as a limit tells only on which side of the number the result lay.

Test [1] deals with T1, CD73 (Homo sapiens (Human), UniProt P21589). It is filed as biochemical. The conditions noted are these: 1 mM NaH2PO4 in enzyme buffer, CD73 0.3 nM, AMP 15 uM.
Method: Compound serial dilutions were pre-spotted into Thermo Nunc assay plate. 50 uL CD73 enzyme buffer (CD73 purchased from R&D system=0.6 nM, 25 mM Tris, pH 7.4, 5 mM MgCl2, 1 mM NaH2PO4) was added into the assay plate and incubate for 15 mins. […] After incubation for 60 mins, the supernatant (20 uL) was transferred into 384-well NUNC plate pre-filled with 60 uL Quench buffer (80% organic and 20% water+0.1% FA) with internal standard. The plate was spun down at 4500 rpm for 20 mins, then 20 uL of supernatant was transferred to another Nunc plate prefilled with 80 uL of water. The samples were analyzed using Rapid fire.
Test [2] has as its target T1, CD73. The experiment in a line: MDA-MB-231 Cell Based CD73 Activity Assay (DMEM). The conditions noted are these: MDA-MB-231-GFP cells, DMEM medium with 10% human plasma, 200 uM AMP.

T1 sequence (P21589 27-574): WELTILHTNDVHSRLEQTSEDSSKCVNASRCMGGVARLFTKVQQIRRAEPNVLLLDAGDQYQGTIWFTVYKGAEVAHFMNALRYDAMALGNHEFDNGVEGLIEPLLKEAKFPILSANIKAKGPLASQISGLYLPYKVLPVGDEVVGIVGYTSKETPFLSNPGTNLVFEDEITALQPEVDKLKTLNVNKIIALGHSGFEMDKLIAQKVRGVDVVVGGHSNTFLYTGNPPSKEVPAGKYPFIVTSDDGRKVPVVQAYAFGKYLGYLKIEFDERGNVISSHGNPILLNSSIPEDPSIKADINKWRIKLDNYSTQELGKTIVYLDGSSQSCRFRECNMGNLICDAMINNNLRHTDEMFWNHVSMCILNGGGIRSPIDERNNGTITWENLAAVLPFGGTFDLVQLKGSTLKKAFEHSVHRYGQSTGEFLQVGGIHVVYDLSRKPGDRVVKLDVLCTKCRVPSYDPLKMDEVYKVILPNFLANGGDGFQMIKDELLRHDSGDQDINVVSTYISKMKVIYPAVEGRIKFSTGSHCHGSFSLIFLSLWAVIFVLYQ

In the case of `O=c1[nH]cc(-c2cc(N3CC[C@@H](OC(F)(F)F)C3)c3ncnn3n2)c(=O)[nH]1` [Example 429, (R)-5-(8-(3-(trifluoromethoxy)pyrrolidin-1-yl)-[1,2,4]triazolo[1,5-b]pyridazin-6-yl)pyrimidine-2,4(1H,3H)-dione], at CD73 [1], the pIC50 was 8.65. On CD73 [2], this molecule showed a pEC50 of 8.05.
`O=c1[nH]cc(-c2cc([C@H]3C[C@@H]3c3ccc4c(cnn4CC(F)(F)F)c3)c3ncnn3n2)c(=O)[nH]1` [Example 430, 5-(8-((1S,2S)-2-(1-(2,2,2-trifluoroethyl)-1H-indazol-5-yl)cyclopropyl)-[1,2,4]triazolo[1,5-b]pyridazin-6-yl)pyrimidine-2,4(1H,3H)-dione] gave a pIC50 against CD73 [1] of 9.74. The pEC50 at CD73 [2] was 9.15.
The corresponding values for `O=c1[nH]cc(-c2cc([C@H]3C[C@@H]3c3ccc4cnn(CC(F)(F)F)c4c3)c3ncnn3n2)c(=O)[nH]1` [Example 431, 5-(8-((1S,2S)-2-(1-(2,2,2-trifluoroethyl)-1H-indazol-6-yl)cyclopropyl)-[1,2,4]triazolo[1,5-b]pyridazin-6-yl)pyrimidine-2,4(1H,3H)-dione] are 9.82 and 9.89.
The matching figures for `O=c1[nH]cc(-c2cc(N3CC(F)(C(F)(F)F)C3)c3ncnn3n2)c(=O)[nH]1` [Example 433, 5-(8-(3-fluoro-3-(trifluoromethyl)azetidin-1-yl)-[1,2,4]triazolo[1,5-b]pyridazin-6-yl)pyrimidine-2,4(1H,3H)-dione]: 8.01 and 7.35.
The matching figures for `O=c1[nH]cc(-c2cc(N3CC(Oc4ccc(C(F)(F)F)cn4)(C(F)(F)F)C3)c3nccn3n2)c(=O)[nH]1` [Example 434, 5-(8-(3-(trifluoromethyl)-3-((5-(trifluoromethyl)pyridin-2-yl)oxy)azetidin-1-yl)imidazo[1,2-b]pyridazin-6-yl)pyrimidine-2,4(1H,3H)-dione]: 8.56 and 7.84.
As to `O=c1[nH]cc(-c2cc(N3CC(F)(COc4ccc(C(F)(F)F)cn4)C3)c3nccn3n2)c(=O)[nH]1` [Example 435, 5-(8-(3-fluoro-3-(((5-(trifluoromethyl)pyridin-2-yl)oxy)methyl)azetidin-1-yl)imidazo[1,2-b]pyridazin-6-yl)pyrimidine-2,4(1H,3H)-dione], on CD73 [1], the pIC50 was 8.22. Further, the pEC50 on CD73 [2] was 7.18.
The matching figures for `O=C(NCC(F)(F)F)OCC1(F)CN(c2cc(-c3c[nH]c(=O)[nH]c3=O)nn3ccnc23)C1` [Example 437, (1-(6-(2,4-dioxo-1,2,3,4-tetrahydropyrimidin-5-yl)imidazo[1,2-b]pyridazin-8-yl)-3-fluoroazetidin-3-yl)methyl (2,2,2-trifluoroethyl)carbamate]: 7.89 and 7.36.
The matching figures for `CC(C)NC(=O)OCC(F)(F)COc1cc(-c2c[nH]c(=O)[nH]c2=O)nn2ncnc12` [Example 438, 3-((6-(2,4-dioxo-1,2,3,4-tetrahydropyrimidin-5-yl)-[1,2,4]triazolo[1,5-b]pyridazin-8-yl)oxy)-2,2-difluoropropyl isopropylcarbamate]: 9.85 and 10.00.
The matching figures for `O=c1[nH]cc(-c2cc([C@H]3C[C@@H]3c3ccc(Cl)cn3)c3ncnn3n2)c(=O)[nH]1` [Example 439, 5-(8-((1S,2S)-2-(5-chloropyridin-2-yl)cyclopropyl)-[1,2,4]triazolo[1,5-b]pyridazin-6-yl)pyrimidine-2,4(1H,3H)-dione]: 9.11 and 8.58.
For `CC1(C)CN(c2cc(-c3c[nH]c(=O)[nH]c3=O)nn3c(F)c(C4CC4)nc23)CC1(F)F` [Example 440, 5-(2-cyclopropyl-8-(3,3-difluoro-4,4-dimethylpyrrolidin-1-yl)-3-fluoroimidazo[1,2-b]pyridazin-6-yl)pyrimidine-2,4(1H,3H)-dione], the pIC50 against CD73 [1] is 7.42. The pEC50 at CD73 [2] is 6.85.
The matching figures for `CC1(C)CN(c2cc(-c3c[nH]c(=O)[nH]c3=O)nn3cc(C4(C(F)(F)F)CC4)nc23)CC1(F)F` [Example 441, 5-(8-(3,3-difluoro-4,4-dimethylpyrrolidin-1-yl)-2-(1-(trifluoromethyl)cyclopropyl)imidazo[1,2-b]pyridazin-6-yl)pyrimidine-2,4(1H,3H)-dione]: 7.33 and 6.62.
The matching figures for `O=c1[nH]cc(-c2cc(N3CC4CCCC43)c3nccn3n2)c(=O)[nH]1` (stereo not drawn) [Example 442, 5-(8-(6-azabicyclo[3.2.0]heptan-6-yl)imidazo[1,2-b]pyridazin-6-yl)pyrimidine-2,4(1H,3H)-dione]: 8.19 and 7.71.
The matching figures for `O=c1[nH]cc(-c2cc(N3CC(CC(F)F)C3)c3nccn3n2)c(=O)[nH]1` [Example 443, 5-(8-(3-(2,2-difluoroethyl)azetidin-1-yl)imidazo[1,2-b]pyridazin-6-yl)pyrimidine-2,4(1H,3H)-dione]: 6.80 and 6.73.
As to `CC1(CC(F)F)CN(c2cc(-c3c[nH]c(=O)[nH]c3=O)nn3ccnc23)C1` [Example 444, 5-(8-(3-(2,2-difluoroethyl)-3-methylazetidin-1-yl)imidazo[1,2-b]pyridazin-6-yl)pyrimidine-2,4(1H,3H)-dione], the pIC50 at CD73 [1] was 7.15. At CD73 [2], this molecule showed a pEC50 of 6.45.
The corresponding values for `CC1(CC(F)(F)F)CN(c2cc(-c3c[nH]c(=O)[nH]c3=O)nn3ccnc23)C1` [Example 445, 5-(8-(3-methyl-3-(2,2,2-trifluoroethyl)azetidin-1-yl)imidazo[1,2-b]pyridazin-6-yl)pyrimidine-2,4(1H,3H)-dione] are 6.83 and 6.59.
In turn, `O=c1[nH]cc(-c2cc(N3CC(C45CC(C4)C5)C3)c3nccn3n2)c(=O)[nH]1` [Example 446, 5-(8-(3-(bicyclo[1.1.1]pentan-1-yl)azetidin-1-yl)imidazo[1,2-b]pyridazin-6-yl)pyrimidine-2,4(1H,3H)-dione] had a pIC50 against CD73 [1] of 7.04. The molecule further gave a pEC50 on CD73 [2] of 5.96.
The matching figures for `O=c1[nH]cc(-c2cc(N3CC(OCC(F)(F)F)C3)c3nccn3n2)c(=O)[nH]1` [Example 447, 5-(8-(3-(2,2,2-trifluoroethoxy)azetidin-1-yl)imidazo[1,2-b]pyridazin-6-yl)pyrimidine-2,4(1H,3H)-dione]: < 6.60 and 6.14.
The matching figures for `O=c1[nH]cc(-c2cc(N3CC4(CC(C(F)F)C4)C3)c3nccn3n2)c(=O)[nH]1` [Example 448, 5-(8-(6-(difluoromethyl)-2-azaspiro[3.3]heptan-2-yl)imidazo[1,2-b]pyridazin-6-yl)pyrimidine-2,4(1H,3H)-dione]: 6.71 and 5.87.
The matching figures for `O=c1[nH]cc(-c2cc(N3CC4(C3)CC(F)(F)CO4)c3nccn3n2)c(=O)[nH]1` [Example 449, 5-(8-(7,7-difluoro-5-oxa-2-azaspiro[3.4]octan-2-yl)imidazo[1,2-b]pyridazin-6-yl)pyrimidine-2,4(1H,3H)-dione]: 6.88 and 6.33.
`O=c1[nH]cc(-c2cc(N3CC(Cc4ccc(F)cc4F)C3)c3nccn3n2)c(=O)[nH]1` [Example 450, 5-(8-(3-(2,4-difluorobenzyl)azetidin-1-yl)imidazo[1,2-b]pyridazin-6-yl)pyrimidine-2,4(1H,3H)-dione]: the pIC50 at CD73 [1] was 6.64. On CD73 [2], this molecule showed a pEC50 of 6.60.
The matching figures for `O=c1[nH]cc(-c2cc(N3CC4CCCCC43)c3nccn3n2)c(=O)[nH]1` (stereo not drawn) [Example 451, 5-(8-(7-azabicyclo[4.2.0]octan-7-yl)imidazo[1,2-b]pyridazin-6-yl)pyrimidine-2,4(1H,3H)-dione]: 7.17 and 6.78.
The matching figures for `O=c1[nH]cc(-c2cc(N3CC[C@H](CC(F)F)C3)c3nccn3n2)c(=O)[nH]1` [Example 454, (R)-5-(8-(3-(2,2-difluoroethyl)pyrrolidin-1-yl)imidazo[1,2-b]pyridazin-6-yl)pyrimidine-2,4(1H,3H)-dione]: 7.54 and 7.30.
The corresponding values for `O=c1[nH]cc(-c2cc(N3CC(F)(C(F)(F)F)C3)c3ncc(Cl)n3n2)c(=O)[nH]1` [Example 455, 5-(3-chloro-8-(3-fluoro-3-(trifluoromethyl)azetidin-1-yl)imidazo[1,2-b]pyridazin-6-yl)pyrimidine-2,4(1H,3H)-dione] are 7.83 and 7.34.
As to `O=c1[nH]cc(-c2cc([C@H]3C[C@@H]3c3ccc4cnn(CC(F)(F)F)c4c3)n3nccc3n2)c(=O)[nH]1` [Example 456, 5-(7-((1S,2S)-2-(1-(2,2,2-trifluoroethyl)-1H-indazol-6-yl)cyclopropyl)pyrazolo[1,5-a]pyrimidin-5-yl)pyrimidine-2,4(1H,3H)-dione], the pIC50 against CD73 [1] is 9.28. Moreover, the pEC50 at CD73 [2] is 9.82.
The matching figures for `CC(C)NC(=O)CCC(F)(F)COc1cc(-c2c[nH]c(=O)[nH]c2=O)nn2ccnc12` [Example 457, 5-((6-(2,4-dioxo-1,2,3,4-tetrahydropyrimidin-5-yl)imidazo[1,2-b]pyridazin-8-yl)oxy)-4,4-difluoro-N-isopropylpentanamide]: 8.45 and 8.01.
The corresponding values for `O=C(CCC(F)(F)COc1cc(-c2c[nH]c(=O)[nH]c2=O)nn2ccnc12)NCC(F)(F)F` [Example 458, 5-((6-(2,4-dioxo-1,2,3,4-tetrahydropyrimidin-5-yl)imidazo[1,2-b]pyridazin-8-yl)oxy)-4,4-difluoro-N-(2,2,2-trifluoroethyl)pentanamide] are 8.39 and 7.88.
`O=c1[nH]cc(-c2cc([C@H]3C[C@@H]3c3ccc4c(Cl)nn(CC(F)(F)F)c4c3)c3nccn3n2)c(=O)[nH]1` [Example 459, 5-(8-((1S,2S)-2-(3-chloro-1-(2,2,2-trifluoroethyl)-1H-indazol-6-yl)cyclopropyl)imidazo[1,2-b]pyridazin-6-yl)pyrimidine-2,4(1H,3H)-dione]: the pIC50 at CD73 [1] is 9.12. For the same molecule, on CD73 [2], the pEC50 is 9.42.
